From US20230279379A1, “METHODS AND MICROFLUIDIC DEVICE FOR PRODUCING EXTRACELLULAR VESICLES” (THE BOARD OF TRUSTEES OF THE UNIVERSITY OF ILLINOIS, priority 2022, published 2023) come the findings set out here.

The test system of one experiment is F-actin in MSCs. Description: dSTORM super-resolution imaging and DBSCAN clustering of F-actin. The class given is cell-based. As to conditions: CK869 treatment for 2 hours. On the procedure:
Sample Preparation for Imaging of F-Actin in Cells on Hydrogels. To prepare samples for F-actin imaging, glass bottom dishes (No 0., 35 mm; MatTek) were silanized, and a thin layer of PEG-DA hydrogel with varied elasticity was formed as described above. After cell seeding on hydrogels and culturing cells in the presence of DMSO or CK869, cells were permeabilized with 0.0015% saponin (Sigma) in a cytoskeleton buffer (10 mM MES, pH 6.0, 150 mM NaCl, 5 mM EGTA, 5 mM glucose, and 5 mM MgCl2) for 4 minutes at room temperature. The samples were then washed with the cytoskeleton buffer 3 times and fixed with 4% paraformaldehyde in the cytoskeleton buffer for 20 minutes at room temperature. […]
Super-Resolution Imaging of F-actin. […] 50,000 images were recorded for each cell in each condition; after rejecting overtly dense/bleached images approx. 30,000 images were analyzed in each cell/condition for localization detection in post-processing using ThunderSTORM (ImageJ), with the following settings in brief: wavelet filtering (B-spline order 3, scale 2); integrated Gaussian fitting (radius: 3 pixels, initial sigma: 1.6 pixels); local maximum with 8-neighborhood; camera pixel size 160 nm. […]
Nanoscale Clustering Analysis of F-actin. […] The percentage of F-actin localizations that belong to each cluster group per cell was then quantified and used for statistical analysis.

The next experiment relates to Primary human MSCs. Description: EV secretion per cell from MSCs on hydrogel substrates, nanoparticle tracking analysis. It counts as cell-based. As to conditions: 5 μM CK869; hydrogels. On the procedure: Cell Seeding on Hydrogels. Hydrogel discs were placed in ultra-low binding polystyrene well plates (Corning) to ensure cells attach to hydrogels and not the plate surface. Hydrogels were washed with Hank's buffered salt solution (HBSS, Thermo Fisher Scientific) for at least 3 days before seeding cells. Cells were seeded at a low density (25 cells/mm^2). After seeding, hydrogels were washed thoroughly to remove unattached cells. Drug treatments of 3 μM MnCl2 (Thermo Fisher Scientific), 200 nM EMD 121974 sold under the tradename Cilengitide® (Cayman) and 5 μM CK869 (Cayman) were applied during and after cell adhesion to substrates. To evaluate the number of live cells seeded on substrates, cells were detached by incubating with a natural enzyme mixture with proteolytic and collagenolytic enzyme activity sold under the tradename ACCUTASE® Cell Detachment Solution (Innovative Cell Technologies, Inc.) for 10 minute at 37° C. Cells were then washed by centrifugation and directly added to HBSS containing calcein AM (1:2000; Biotium), ethidium bromide (1:2000; Thermo Fisher Scientific), and a predefined number of allophycocyanin (APC) beads (BD). After incubation at room temperature (RT) for 10 minutes, the samples were analyzed for live and dead cell number by flow cytometry.
Particle Size and Number Characterization. Particle size and number were obtained using Nanoparticle Tracking Analysis 3.2 (NTA) via NanoSight NS300 (Malvern) using a 405 nm laser. Samples were introduced by syringe pump at a rate 100 μL/min. Three thirty-second videos were acquired using camera level 14 followed by detection threshold 7. Camera focus, shutter, blur, minimum track length, minimum expected particle size and maximum jump length were set automatically by the software. Samples were diluted as needed to maintain particles per video from 100-2000. To ensure specificity, all samples were tested as compared to appropriate blank conditions.
To test the effect of substrate mechanics on EV secretion from MSCs, hydrogel substrates were engineered which were composed of alginate polymer conjugated with the cell adhesion peptide Arg-Gly-Asp (RGD) that binds primarily to αvβ3 and α5β1 integrins. Alginate-RGD hydrogels can be formed either covalently through adipic acid dihydrazide or physically through divalent cations, resulting in elastic or stress-relaxing hydrogels, respectively. For both types of hydrogels, elastic modulus (Young's modulus, E) of ˜3 kPa ‘soft’ and E ˜20 kPa ‘stiff’ were considered values that represent a physiologically relevant range of substrate elasticity for MSC mechanosensing, while E is ˜0.1 GPa for conventional plastic substrates. Primary human bone marrow MSCs were allowed to adhere to substrates for 24 hours followed by washout and collection of the serum-free conditioned medium from MSCs after 24 hours. After centrifugation of the medium at 10,000 g to remove cell, apoptotic, and larger particle fractions, particles remaining in the medium were analyzed by nanoparticle tracking analysis and normalized to the number of live adhered cells counted by flow cytometry (see Methods). MSCs were seeded at low density (˜25 cells/mm^2) to avoid potential effects from cell-cell interactions. […] Thus, focus was placed on the EVs remaining in the supernatant after the 10,000 g centrifugation. For these EVs, the particle size distribution remained similar across different substrates with median diameter ˜120 nm (FIG. 1B). […] Moreover, EVs from different substrates expressed similar levels of late endosomal markers CD63 and CD9. Importantly, levels of ribosomal RNA (rRNA) in particle preparations were similar across hydrogels or plastic substrates, and rRNA as a percentage of total RNA was lower than that found in untreated MSCs or particles derived from H2O2-treated apoptotic MSCs, ruling out apoptosis as a potential factor of increased EV secretion on the soft hydrogel. […]

For `COc1ccc(N2C(=O)CSC2c2cccc(Br)c2)c(OC)c1` (centres unmarked) [CK869], the “distribution of F-actin clusters” value with F-actin in MSCs is “did not alter the distribution of different F-actin clusters on both substrates”. In the experiment on Primary human MSCs, the “EV secretion compared to DMSO” value is listed as “significantly increased EV secretion”.
